ChEMBL document CHEMBL5303304, “EUbOPEN Chemogenomics Library - IncuCyte” (2023)

Assays:
Format in all cases: toxicity, cell-based
U2OS = test: Incucyte cell viability with U2OS; conditions: human, 10 µM, compound concentration 10 uM
HEK-293T = test: Incucyte cell viability with HEK293T; conditions: human, 10 µM, compound concentration 10 uM
Fibroblast = test: Incucyte cell viability with human fibroblast; conditions: 10 µM, compound concentration 10 uM
Further: unitless GR value; below 1 slowed growth and below 0 cell loss.

SMILES	Growth Rate (U2OS; 0 h, replicate number 2)	Growth Rate (U2OS; 12 h, replicate number 2)	Growth Rate (U2OS; 18 h, replicate number 1)	Growth Rate (U2OS; 18 h, replicate number 2)	Growth Rate (U2OS; 24 h, replicate number 1)	Growth Rate (U2OS; 24 h, replicate number 2)	Growth Rate (HEK-293T; 0 h, replicate number 1)	Growth Rate (Fibroblast; 6 h, replicate number 1)	Growth Rate (Fibroblast; 18 h, replicate number 2)	Growth Rate (Fibroblast; 24 h, replicate number 2)	Growth Rate (U2OS; 6 h, replicate number 1)	Growth Rate (U2OS; 12 h, replicate number 1)	Growth Rate (HEK-293T; 6 h, replicate number 1)	Growth Rate (Fibroblast; 0 h, replicate number 2)	Growth Rate (Fibroblast; 6 h, replicate number 2)	Growth Rate (Fibroblast; 12 h, replicate number 2)	Growth Rate (Fibroblast; 18 h, replicate number 1)	Growth Rate (U2OS; 6 h, replicate number 2)	Growth Rate (HEK-293T; 0 h, replicate number 2)	Growth Rate (Fibroblast; 24 h, replicate number 1)	also measured
CCN1CCN(Cc2ccc(NC(=O)Nc3ccc(Oc4cc(NC)ncn4)cc3)cc2C(F)(F)F)CC1 [AST-487]	-0.84	0.86	0.36	0.41	0.19	0.08	-0.91	-1	0.81	0.4											Growth Rate (HEK-293T; 6 h, replicate number 2): -0.54; Growth Rate (HEK-293T; 12 h, replicate number 2): -0.4; Growth Rate (HEK-293T; 18 h, replicate number 2): -0.29; Growth Rate (HEK-293T; 24 h, replicate number 2): -0.21; Growth Rate (Fibroblast; 0 h, replicate number 1): 0.93
CC(=O)Nc1nc(C)c(S(=O)(=O)Nc2ccc(C(O)(C(F)(F)F)C(F)(F)F)cc2)s1			0.74		0.79		0.65		0.9		0.76	0.61	0.85	0.65	0.51	0.84	1				Growth Rate (U2OS; 0 h, replicate number 1): -0.47; Growth Rate (HEK-293T; 12 h, replicate number 1): 0.86; Growth Rate (HEK-293T; 12 h, replicate number 2): 0.89; Growth Rate (HEK-293T; 18 h, replicate number 2): 0.85; Growth Rate (HEK-293T; 24 h, replicate number 2): 0.78; Growth Rate (Fibroblast; 12 h, replicate number 1): 0.45
Cc1cc(CN)cc(C)c1-c1ncn(C)c1-c1ccnc2cc(F)ccc12.Cl								0.02	0.81	0.96	0.34	0.92	0.92	-0.39	-0.26		0.6	0.85	0.04	0.89	Growth Rate (Fibroblast; 0 h, replicate number 1): -1; Growth Rate (Fibroblast; 12 h, replicate number 1): 0.77
CCCCCCCCCCCCCC(=O)O[C@@H]1[C@@H](C)[C@@]2(O)[C@@H](C=C(CO)C[C@]3(O)C(=O)C(C)=C[C@@H]23)[C@@H]2C(C)(C)[C@]12OC(C)=O [PHORBOL MYRISTATE ACETATE]	-1		0.96	0.92	0.96	0.72	0.64	0.89	0.85	0.78		0.98		-0.74	-1	0.09			-0.1		Growth Rate (HEK-293T; 18 h, replicate number 2): 0.99; Growth Rate (HEK-293T; 24 h, replicate number 2): 0.75; Growth Rate (Fibroblast; 12 h, replicate number 1): -1
COc1cc(C(=O)NCCOCCOCCOCC(=O)N[C@H](C(=O)N2C[C@@H](O)C[C@H]2C(=O)NCc2ccc(-c3scnc3C)cc2)C(C)(C)C)ccc1Nc1ncc(C(F)(F)F)c(Oc2cccc3c2C(=O)CC3)n1	0.1					0.94	-1							0.86							
CC(=O)c1c(C)c2cnc(Nc3ccn(C)n3)nc2n(C2CCCC2)c1=O		0.99		0.92			0.51				0.67	0.06	0.81		0.93		0.8	0.96			Growth Rate (HEK-293T; 6 h, replicate number 2): 0.76; Growth Rate (HEK-293T; 12 h, replicate number 1): 0.97; Growth Rate (HEK-293T; 12 h, replicate number 2): 0.81; Growth Rate (HEK-293T; 18 h, replicate number 1): 0.9; Growth Rate (HEK-293T; 18 h, replicate number 2): 0.79; Growth Rate (HEK-293T; 24 h, replicate number 1): 0.79; Growth Rate (HEK-293T; 24 h, replicate number 2): 0.83
Cc1nc2cccnc2n2c(-c3cc(C(C)(C)O)ncc3Cl)nnc12	0.27	0.74		0.95			0.72	0.43						-0.22			0.63	0.32	-0.52		Growth Rate (Fibroblast; 0 h, replicate number 1): -1
CC(C)CC(=O)Nc1cncc(-c2ccc3[nH]nc(-c4nc5c(-c6cccc(F)c6)cncc5[nH]4)c3c2)c1 [LORECIVIVINT]	-0.42	-0.62	-0.52	-0.47	-0.44	-0.42		-1	-0.37	-0.13	-0.98	-0.71	-0.99	-0.25	-0.98	-0.68		-0.82			Growth Rate (HEK-293T; 6 h, replicate number 2): -0.98; Growth Rate (HEK-293T; 12 h, replicate number 1): -0.89; Growth Rate (HEK-293T; 12 h, replicate number 2): -0.78; Growth Rate (HEK-293T; 18 h, replicate number 1): -0.67; Growth Rate (HEK-293T; 18 h, replicate number 2): -0.58; Growth Rate (HEK-293T; 24 h, replicate number 1): -0.41; Growth Rate (HEK-293T; 24 h, replicate number 2): -0.44; Growth Rate (Fibroblast; 0 h, replicate number 1): -0.18
CCOC(=O)c1cncn1[C@H](C)c1ccccc1 [ETOMIDATE]	-0.28		0.9	0.87	0.98							0.97	0.68	0.93			0.21	0.83		-0.16	Growth Rate (U2OS; 0 h, replicate number 1): 0.35; Growth Rate (Fibroblast; 0 h, replicate number 1): 0.28
COc1ccccc1Nc1nc(-c2nn(Cc3c(F)cc(OCCCO)cc3F)c3ccccc23)ncc1OC		0.93		1		0.96	0.17	0.3	0.58	0.85				-0.85	0.53	0.41	0.85	0.89		0.77	Growth Rate (Fibroblast; 12 h, replicate number 1): 0.59
C[C@@H](CN1CCC(Cc2ccccc2)CC1)[C@@H](O)c1ccc(O)cc1	-0.81		0.98	0.99	0.96			-0.49	0.53	0.68	0.07	0.85			-0.45	0.48			0.98	0.78	Growth Rate (U2OS; 0 h, replicate number 1): -0.54; Growth Rate (HEK-293T; 6 h, replicate number 2): 0.36; Growth Rate (HEK-293T; 12 h, replicate number 2): 0.86; Growth Rate (Fibroblast; 12 h, replicate number 1): -0.59
C[C@H](C[C@H](N)C(=O)O)C(=O)O [2S,4R-4-METHYLGLUTAMATE]		0.89		0.82		0.94				0.97				-0.67	0.92	0.66		0.65	0.9	0.42	
Oc1c(-c2cccnc2)cnn1-c1ccccn1					0.84		0.54		0.44	0.59	0.87		0.91	0.86					-0.2	0.87	
